Measurements published in ChEMBL document CHEMBL3045021, “Synthesis, antibacterial, and antifungal activities of biolabile (E)-1-(4-morpholinophenyl)-3-aryl-prop-2-en-1-ones” (2009).
The source made the active and inactive calls. No cut-off for these calls is given here.

Assays:
Type in all cases: functional
[1] = system: Salmonella typhi; assay: Antimicrobial activity against Salmonella enterica subsp. enterica serovar Typhi at 100 ppm after 24 hr by disk diffusion method
[2] = system: Vibrio cholerae; assay: Antimicrobial activity against Vibrio cholerae at 500 ppm after 24 hr by disk diffusion method; details: read-out: IZ
[3] = system: Vibrio cholerae; assay: Antimicrobial activity against Vibrio cholerae at 200 ppm after 24 hr by disk diffusion method; details: read-out: IZ
[4] = system: Vibrio cholerae; assay: Antimicrobial activity against Vibrio cholerae at 100 ppm after 24 hr by disk diffusion method
[5] = system: Streptococcus; assay: Antimicrobial activity against beta-hemolytic Streptococcus at 500 ppm after 24 hr by disk diffusion method; details: read-out: IZ
[6] = system: Streptococcus; assay: Antimicrobial activity against beta-hemolytic Streptococcus at 200 ppm after 24 hr by disk diffusion method; details: read-out: IZ
[7] = system: Streptococcus; assay: Antimicrobial activity against beta-hemolytic Streptococcus at 100 ppm after 24 hr by disk diffusion method
[8] = system: Staphylococcus aureus; assay: Antimicrobial activity against Staphylococcus aureus at 500 ppm after 24 hr by disk diffusion method; details: read-out: IZ
[9] = system: Staphylococcus aureus; assay: Antimicrobial activity against Staphylococcus aureus at 200 ppm after 24 hr by disk diffusion method; details: read-out: IZ
[10] = system: Staphylococcus aureus; assay: Antimicrobial activity against Staphylococcus aureus at 100 ppm after 24 hr by disk diffusion method
[11] = system: Nannizzia gypsea; assay: Antimicrobial activity against Microsporum gypseum at 100 ppm after 72 to 96 hr by disk diffusion method; details: read-out: IZ
[12] = system: Rhizopus; assay: Antimicrobial activity against Rhizopus at 500 ppm after 72 to 96 hr by disk diffusion method; details: read-out: IZ
[13] = system: Rhizopus; assay: Antimicrobial activity against Rhizopus at 200 ppm after 72 to 96 hr by disk diffusion method; details: read-out: IZ
[14] = system: Rhizopus; assay: Antimicrobial activity against Rhizopus at 100 ppm after 72 to 96 hr by disk diffusion method
[15] = system: Mucor; assay: Antimicrobial activity against Mucor at 500 ppm after 72 to 96 hr by disk diffusion method; details: read-out: IZ
[16] = system: Mucor; assay: Antimicrobial activity against Mucor at 200 ppm after 72 to 96 hr by disk diffusion method; details: read-out: IZ
[17] = system: Mucor; assay: Antimicrobial activity against Mucor at 100 ppm after 72 to 96 hr by disk diffusion method
[18] = system: Aspergillus flavus; assay: Antimicrobial activity against Aspergillus flavus at 500 ppm after 72 to 96 hr by disk diffusion method; details: read-out: IZ
[19] = system: Aspergillus flavus; assay: Antimicrobial activity against Aspergillus flavus at 200 ppm after 72 to 96 hr by disk diffusion method; details: read-out: IZ
[20] = system: Aspergillus flavus; assay: Antimicrobial activity against Aspergillus flavus at 100 ppm after 72 to 96 hr by disk diffusion method
[21] = system: Pseudomonas; assay: Antimicrobial activity against Pseudomonas at 500 ppm after 24 hr by disk diffusion method; details: read-out: IZ
[22] = system: Pseudomonas; assay: Antimicrobial activity against Pseudomonas at 200 ppm after 24 hr by disk diffusion method; details: read-out: IZ
[23] = system: Pseudomonas; assay: Antimicrobial activity against Pseudomonas at 100 ppm after 24 hr by disk diffusion method
[24] = system: Klebsiella pneumoniae; assay: Antimicrobial activity against Klebsiella pneumoniae at 500 ppm after 24 hr by disk diffusion method; details: read-out: IZ
[25] = system: Klebsiella pneumoniae; assay: Antimicrobial activity against Klebsiella pneumoniae at 200 ppm after 24 hr by disk diffusion method; details: read-out: IZ
[26] = system: Klebsiella pneumoniae; assay: Antimicrobial activity against Klebsiella pneumoniae at 100 ppm after 24 hr by disk diffusion method
[27] = system: Escherichia coli; assay: Antimicrobial activity against Escherichia coli at 500 ppm after 24 hr by disk diffusion method; details: read-out: IZ
[28] = system: Escherichia coli; assay: Antimicrobial activity against Escherichia coli at 200 ppm after 24 hr by disk diffusion method; details: read-out: IZ
[29] = system: Escherichia coli; assay: Antimicrobial activity against Escherichia coli at 100 ppm after 24 hr by disk diffusion method
[30] = system: Shigella flexneri; assay: Antimicrobial activity against Shigella flexneri at 500 ppm after 24 hr by disk diffusion method; details: read-out: IZ
[31] = system: Nannizzia gypsea; assay: Antimicrobial activity against Microsporum gypseum at 500 ppm after 72 to 96 hr by disk diffusion method; details: read-out: IZ
[32] = system: Nannizzia gypsea; assay: Antimicrobial activity against Microsporum gypseum at 200 ppm after 72 to 96 hr by disk diffusion method; details: read-out: IZ
[33] = system: Shigella flexneri; assay: Antimicrobial activity against Shigella flexneri at 200 ppm after 24 hr by disk diffusion method; details: read-out: IZ
[34] = system: Shigella flexneri; assay: Antimicrobial activity against Shigella flexneri at 100 ppm after 24 hr by disk diffusion method; details: read-out: IZ
[35] = system: Salmonella typhi; assay: Antimicrobial activity against Salmonella enterica subsp. enterica serovar Typhi at 500 ppm after 24 hr by disk diffusion method; details: read-out: IZ
[36] = system: Salmonella typhi; assay: Antimicrobial activity against Salmonella enterica subsp. enterica serovar Typhi at 200 ppm after 24 hr by disk diffusion method; details: read-out: IZ

SMILES	inhibition zone (IZ) [1]	zone of inhibition at 500 ppm [2]	zone of inhibition at 200 ppm [3]	zone of inhibition at 500 ppm [5]	zone of inhibition at 200 ppm [6]	zone of inhibition at 500 ppm [8]	zone of inhibition at 200 ppm [9]	zone of inhibition at 100 ppm [11]	zone of inhibition at 500 ppm [12]	zone of inhibition at 200 ppm [13]	inhibition zone (IZ) [14]	zone of inhibition at 500 ppm [15]	zone of inhibition at 200 ppm [16]	zone of inhibition at 500 ppm [18]	zone of inhibition at 200 ppm [19]	zone of inhibition at 500 ppm [21]	zone of inhibition at 200 ppm [22]	zone of inhibition at 500 ppm [24]	zone of inhibition at 200 ppm [25]	zone of inhibition at 500 ppm [27]	further results
O=C(/C=C/c1ccc(Cl)cc1)c1ccc(N2CCOCC2)cc1	inactive	17 mm	17 mm	22 mm	17 mm	22 mm	17 mm	12 mm	30 mm	17 mm	inactive	22 mm	17 mm	30 mm	22 mm	30 mm	22 mm	30 mm	22 mm	17 mm	zone of inhibition at 100 ppm ([4]; read-out: IZ): 12 mm; zone of inhibition at 100 ppm ([7]; read-out: IZ): 12 mm; zone of inhibition at 100 ppm ([10]; read-out: IZ): 12 mm; zone of inhibition at 100 ppm ([17]; read-out: IZ): 12 mm; inhibition zone (IZ) [20]: inactive; zone of inhibition at 100 ppm ([23]; read-out: IZ): 17 mm; zone of inhibition at 100 ppm ([26]; read-out: IZ): 12 mm; zone of inhibition at 200 ppm [28]: 17 mm; zone of inhibition at 100 ppm ([29]; read-out: IZ): 12 mm; zone of inhibition at 500 ppm [30]: 22 mm; zone of inhibition at 500 ppm [31]: 22 mm; zone of inhibition at 200 ppm [32]: 17 mm; zone of inhibition at 200 ppm [33]: 17 mm; zone of inhibition at 100 ppm [34]: 17 mm; zone of inhibition at 500 ppm [35]: 22 mm; zone of inhibition at 200 ppm [36]: 17 mm
O=C(/C=C/c1cccc([N+](=O)[O-])c1)c1ccc(N2CCOCC2)cc1	inactive	17 mm	12 mm	22 mm	17 mm	22 mm	17 mm	12 mm	22 mm	17 mm	inactive	22 mm	17 mm	22 mm	17 mm	30 mm	22 mm	22 mm	17 mm	22 mm	inhibition zone (IZ) [4]: inactive; inhibition zone (IZ) [7]: inactive; inhibition zone (IZ) [10]: inactive; inhibition zone (IZ) [17]: inactive; zone of inhibition at 100 ppm ([20]; read-out: IZ): 12 mm; inhibition zone (IZ) [23]: inactive; inhibition zone (IZ) [26]: inactive; zone of inhibition at 200 ppm [28]: 17 mm; inhibition zone (IZ) [29]: inactive; zone of inhibition at 500 ppm [30]: 22 mm; zone of inhibition at 500 ppm [31]: 22 mm; zone of inhibition at 200 ppm [32]: 17 mm; zone of inhibition at 200 ppm [33]: 17 mm; zone of inhibition at 100 ppm [34]: 12 mm; zone of inhibition at 500 ppm [35]: 17 mm; zone of inhibition at 200 ppm [36]: 12 mm
